Experimental data published in patent US20140155376A1, “PYRROLOPYRAZINE KINASE INHIBITORS” (Hoffmann-La Roche Inc., priority 2010, published 2014).

The molecules below were run against T1, JAK3 (recombinant human kinase domain; h-jak3(810-1124)) (Homo sapiens, UniProt P52333) (assay: Determination of IC50 of Janus Kinase (JAK) inhibition: JAK3, radioactive end-point assay with 33P-ATP). Conditions: JAK3 kinase domain; ATP 1.5 uM, peptide 50 uM, 20 minutes, room temperature, 10% DMSO; read-out: Ic50 h-jak3(810-1124)-sf9-c:no additive.
T1 construct: h-jak3(810- 1124)-sf9-c; made in house; host or cells: Sf9 insect cells
Type: biochemical
Source text: Determination of IC50 of Janus Kinase (JAK) Inhibition:
Enzymes and peptide substrate used are described below: • JAK1: Recombinant human kinase domain from Invitrogen (Cat # PV4774) • JAK3: Recombinant human kinase domain from Millipore (Cat #14-629) or prepared. • JAK2: Recombinant human kinase domain from Millipore (Cat #14-640) • Substrate: N-terminally biotinylated 14-mer peptide derived from activation loop of JAK1 with sequence of the peptide substrate: Biotin-[sequence]
Assay Conditions Used are Described Below: • Assay Buffer: JAK Kinase Buffer: 50 mM Hepes [pH 7.2], 10 mM MgCl2, 1 mM DTT, • 1 mg/ml BSA. The assay is carried out in this buffer. • Assay Format The kinase activity of all three JAK kinases is measured using a radioactive, end-point assay and with trace amounts of ^33P-ATP. The assays are carried out in 96-well polypropylene plates.
All concentrations are final in the reaction mixture and all incubations are carried at room temperature. […] Final concentration of DMSO in the reaction is 10%. • 2) Compounds are preincubated with enzyme (0.5 nM JAK3 (commercially available), 0.2 nM JAK3 (prepared), 1 nM JAK2, 5 nM JAK1) for 10 minutes. • 3) Reactions are initiated by the addition of a cocktail of the two substrates (ATP and peptide premixed in the JAK Kinase Buffer). In the JAK2/JAK3 assays, ATP and the peptide are used at concentrations of 1.5 uM and 50 uM, respectively. JAK1 assay is carried out at an ATP concentration of 10 uM and a peptide concentration of 50 uM. • 4) The duration of the assay for JAK2 and JAK3 is 20 minutes. JAK1 assay is carried out for 40 minutes. With all three enzymes, reactions are terminated by the addition of 0.5M EDTA to a final concentration of 100 mM. • 5) 25 ul of terminated reactions are transferred to 150 ul of a 7.5% (v/v) slurry of streptavidin-coated sepharose beads in MgCl2- and CaCl2-free 1× Phosphate Buffered Saline containing 50 mM of EDTA in 96-well, 1.2 um MultiScreen-BV filter plates. • 6) After a 30-minute incubation, the beads are washed under vacuum with the following buffers: • a. 3 to 4 washes with 200 ul of 2M NaCl. • b. 3 to 4 washes with 200 ul of 2M NaCl plus 1% (v/v) phosphoric acid. • c. 1 wash with water. • 7) Washed plates are dried in a 60° C. oven for between 1 to 2 hours. • 8) 70 ul of Microscint 20 scintillation fluid is added to each well of filter plates and after at least 30 minutes of incubation, radioactive counts are measured in a Perkin-Elmer microplate scintillation counter.

T1 sequence (P52333 810-1124): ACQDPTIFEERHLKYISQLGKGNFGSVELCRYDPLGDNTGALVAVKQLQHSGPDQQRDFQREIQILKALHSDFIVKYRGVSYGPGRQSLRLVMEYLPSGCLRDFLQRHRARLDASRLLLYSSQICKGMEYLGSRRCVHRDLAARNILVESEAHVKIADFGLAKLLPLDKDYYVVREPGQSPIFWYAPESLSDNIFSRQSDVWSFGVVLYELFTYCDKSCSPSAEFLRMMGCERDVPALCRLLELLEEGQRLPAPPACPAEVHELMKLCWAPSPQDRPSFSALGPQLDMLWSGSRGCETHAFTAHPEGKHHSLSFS

With Cc1cc(-c2cnc3[nH]cc(C(=O)N[C@@H](C)C(C)(C)C)c3n2)sc1C(=O)NC1CCOCC1 [Example I-219, 2-[4-Methyl-5-(tetrahydro-pyran-4-ylcarbamoyl)-thiophen-2-yl]-5H-pyrrolo[2,3-b]pyrazine-7-carboxylic acid ((S)-1,2,2-trimethyl-propyl)-amide] as the molecule, how does the IC50 read?
Its IC50 is 0.24 nM.

CC(C)c1cnc2[nH]cc(C(=O)N[C@@H](C)C(C)(C)O)c2n1 [Example I-5, 2-Isopropyl-5H-pyrrolo[2,3-b]pyrazine-7-carboxylic acid ((S)-2-hydroxy-1,2-dimethyl-propyl)-amide] was tested. Which IC50 did it give?
The IC50 was 302 nM.

With Cc1csc(CNC(=O)c2ccc(-c3cnc4[nH]cc(C(=O)N[C@@H](C)C(C)(C)C)c4n3)s2)c1 [Example I-192, 2-{5-[(4-Methyl-thiophen-2-ylmethyl)-carbamoyl]-thiophen-2-yl}-5H-pyrrolo[2,3-b]pyrazine-7-carboxylic acid ((S)-1,2,2-trimethyl-propyl)-amide] as the molecule, how does the IC50 read?
The IC50 was 0.4 nM.

Which IC50 does the source give for COCC(C)NC(=O)c1ccc(-c2cnc3[nH]cc(C(=O)N[C@@H](C)C(C)(C)C)c3n2)s1 (stereo partly drawn) [Example I-214, 2-[5-(2-Methoxy-1-methyl-ethylcarbamoyl)-thiophen-2-yl]-5H-pyrrolo[2,3-b]pyrazine-7-carboxylic acid ((S)-1,2,2-trimethyl-propyl)-amide] here?
Its IC50 is 0.28 nM.

For CC(C)[C@@H](C)NC(=O)c1c[nH]c2ncc(Oc3ccc(F)cc3F)nc12 [Example I-127, 2-(2,4-Difluoro-phenoxy)-5H-pyrrolo[2,3-b]pyrazine-7-carboxylic acid ((R)-1,2-dimethyl-propyl)-amide], which IC50 is on record?
The IC50 was 143 nM.

How did the IC50 turn out when C[C@H](NC(=O)c1c[nH]c2ncc(-c3cnn(C)c3)nc12)C(C)(C)C [Example I-141, 2-(1-Methyl-1H-pyrazol-4-yl)-5H-pyrrolo[2,3-b]pyrazine-7-carboxylic acid ((S)-1,2,2-trimethyl-propyl)-amide] was run?
Its IC50 is 0.19 nM.

Which IC50 does the source give for N#CC(NC(=O)c1c[nH]c2ncc(C3CC3)nc12)C1CC1 (stereo not shown) [Example I-90, 2-Cyclopropyl-5H-pyrrolo[2,3-b]pyrazine-7-carboxylic acid (cyano-cyclopropyl-methyl)-amide] here?
The IC50 was 14.5 nM.

With C[C@H](NC(=O)c1c[nH]c2ncc(Oc3ccc(F)cc3F)nc12)C(C)(C)C [Example I-133, 2-(2,4-Difluoro-phenoxy)-5H-pyrrolo[2,3-b]pyrazine-7-carboxylic acid ((S)-1,2,2-trimethyl-propyl)-amide] as the molecule, how does the IC50 read?
Its IC50 is 154 nM.

How did the IC50 turn out when CC(C)[C@H](C)NC(=O)c1c[nH]c2ncc(C3CC3)nc12 [Example I-25, 2-Cyclopropyl-5H-pyrrolo[2,3-b]pyrazine-7-carboxylic acid ((S)-1,2-dimethyl-propyl)-amide] was run?
The IC50 was 6.73 nM.

C[C@@H](NC(=O)c1c[nH]c2ncc(C3CC3)nc12)C1CCCCC1 [Example I-60, 2-Cyclopropyl-5H-pyrrolo[2,3-b]pyrazine-7-carboxylic acid ((R)-1-cyclohexyl-ethyl)-amide] was tested. Which IC50 did it give?
Its IC50 is 15 nM.

Which IC50 does the source give for C[C@H](NC(=O)c1c[nH]c2ncc(-c3cn(-c4cc(Cl)ccc4F)cn3)nc12)C(C)(C)C [Example I-147, 2-[1-(5-Chloro-2-fluoro-phenyl)-1H-imidazol-4-yl]-5H-pyrrolo[2,3-b]pyrazine-7-carboxylic acid ((S)-1,2,2-trimethyl-propyl)-amide] here?
Its IC50 is 2.46 nM.

With COC[C@H](NC(=O)c1c[nH]c2ncc(C3CC3)nc12)C(C)(C)C [Example I-64, 2-Cyclopropyl-5H-pyrrolo[2,3-b]pyrazine-7-carboxylic acid ((R)-1-methoxymethyl-2,2-dimethyl-propyl)-amide] as the molecule, how does the IC50 read?
Its IC50 is 35.1 nM.

For CCNC(=O)c1c[nH]c2ncc(Oc3cccc(C(C)(C)C)c3)nc12 [Example I-247, 2-(3-tert-Butyl-phenoxy)-5H-pyrrolo[2,3-b]pyrazine-7-carboxylic acid ethylamide], which IC50 is on record?
Its IC50 is 6460 nM.

C[C@H](NC(=O)c1c[nH]c2ncc(-c3cn(-c4cccc(C(F)(F)F)c4)cn3)nc12)C(C)(C)C [Example I-146, 2-[1-(3-Trifluoromethyl-phenyl)-1H-imidazol-4-yl]-5H-pyrrolo[2,3-b]pyrazine-7-carboxylic acid ((S)-1,2,2-trimethyl-propyl)-amide] was tested. Which IC50 did it give?
The IC50 was 13.1 nM.

For CC(Cn1cccn1)NC(=O)c1ccc(-c2cnc3[nH]cc(C(=O)N[C@@H](C)C(C)(C)C)c3n2)s1 (stereo partly drawn) [Example I-158, 2-[5-(1-Methyl-2-pyrazol-1-yl-ethylcarbamoyl)-thiophen-2-yl]-5H-pyrrolo[2,3-b]pyrazine-7-carboxylic acid ((S)-1,2,2-trimethyl-propyl)-amide], which IC50 is on record?
Its IC50 is 0.32 nM.

For COc1cccc(CNC(=O)c2ccc(-c3cnc4[nH]cc(C(=O)N[C@@H](C)C(C)(C)C)c4n3)s2)c1 [Example I-206, 2-[5-(3-Methoxy-benzylcarbamoyl)-thiophen-2-yl]-5H-pyrrolo[2,3-b]pyrazine-7-carboxylic acid ((S)-1,2,2-trimethyl-propyl)-amide], which IC50 is on record?
The IC50 was 0.32 nM.

For CCC(=O)N[C@@H]1CCc2ccc(Oc3cnc4[nH]cc(C(=O)NC(C)C)c4n3)cc21 [Example I-282, 2-((R)-3-Propionylamino-indan-5-yloxy)-5H-pyrrolo[2,3-b]pyrazine-7-carboxylic acid isopropylamide], which IC50 is on record?
Its IC50 is 125 nM.

For C[C@H](NC(=O)c1c[nH]c2ncc(C3CC3)nc12)C1(O)CCCC1 [Example I-97, 2-Cyclopropyl-5H-pyrrolo[2,3-b]pyrazine-7-carboxylic acid [(S)-1-(1-hydroxy-cyclopentyl)-ethyl]-amide], which IC50 is on record?
Its IC50 is 18 nM.

Which IC50 does the source give for CC[C@H](C)NC(=O)c1c[nH]c2ncc(C3CC3)nc12 [Example I-22, 2-Cyclopropyl-5H-pyrrolo[2,3-b]pyrazine-7-carboxylic acid ((S)-sec-butyl)-amide] here?
Its IC50 is 5.9 nM.

How did the IC50 turn out when C[C@H](CO)NC(=O)c1c[nH]c2ncc(C3CC3)nc12 [Example I-41, 2-Cyclopropyl-5H-pyrrolo[2,3-b]pyrazine-7-carboxylic acid ((R)-2-hydroxy-1-methyl-ethyl)-amide] was run?
Its IC50 is 112 nM.

With CC(C)(O)C(NC(=O)c1c[nH]c2ncc(C3CC3)nc12)C(F)(F)F (stereo not shown) [Example I-93, 2-Cyclopropyl-5H-pyrrolo[2,3-b]pyrazine-7-carboxylic acid (2-hydroxy-2-methyl-1-trifluoromethyl-propyl)-amide] as the molecule, how does the IC50 read?
Its IC50 is 57.8 nM.

Which IC50 does the source give for C[C@H](NC(=O)c1c[nH]c2ncc(-c3ccc(C(=O)N4CC(CO)(CO)C4)s3)nc12)C(C)(C)C [Example I-218, 2-[5-(3,3-Bis-hydroxymethyl-azetidine-1-carbonyl)-thiophen-2-yl]-5H-pyrrolo[2,3-b]pyrazine-7-carboxylic acid ((S)-1,2,2-trimethyl-propyl)-amide] here?
The IC50 was 0.13 nM.

C[C@H](NC(=O)c1c[nH]c2ncc(-c3ccccn3)nc12)C(C)(C)C [Example I-72, 2-Pyridin-2-yl-5H-pyrrolo[2,3-b]pyrazine-7-carboxylic acid ((S)-1,2,2-trimethyl-propyl)-amide] was tested. Which IC50 did it give?
Its IC50 is 10 nM.

How did the IC50 turn out when C[C@H](NC(=O)c1c[nH]c2ncc(C3CC3)nc12)[C@](C)(O)CC1CC1 [Example I-48, 2-Cyclopropyl-5H-pyrrolo[2,3-b]pyrazine-7-carboxylic acid ((1S,2R)-3-cyclopropyl-2-hydroxy-1,2-dimethyl-propyl)-amide] was run?
Its IC50 is 116 nM.

Which IC50 does the source give for CC(C)NC(=O)c1c[nH]c2ncc(Oc3ccc4cc[nH]c4c3)nc12 [Example I-272, 2-(1H-Indol-6-yloxy)-5H-pyrrolo[2,3-b]pyrazine-7-carboxylic acid isopropylamide] here?
The IC50 was 29.3 nM.

With CCNC(=O)c1ccc(-c2cnc3[nH]cc(C(=O)N[C@@H](C)C(C)(C)C)c3n2)s1 [Example I-155, 2-(5-Ethylcarbamoyl-thiophen-2-yl)-5H-pyrrolo[2,3-b]pyrazine-7-carboxylic acid ((S)-1,2,2-trimethyl-propyl)-amide] as the molecule, how does the IC50 read?
The IC50 was 0.32 nM.

How did the IC50 turn out when COCC(C)NC(=O)c1c[nH]c2ncc(C3CC3)nc12 (stereo not shown) [Example I-9, 2-Cyclopropyl-5H-pyrrolo[2,3-b]pyrazine-7-carboxylic acid (2-methoxy-1-methyl-ethyl)-amide] was run?
The IC50 was 19.6 nM.

For CCNC(=O)c1c[nH]c2ncc(Oc3cccc(C)c3)nc12 [Example I-248, 2-m-Tolyloxy-5H-pyrrolo[2,3-b]pyrazine-7-carboxylic acid ethylamide], which IC50 is on record?
Its IC50 is 1030 nM.

C[C@H](NC(=O)c1c[nH]c2ncc(-c3ccc(C(=O)NCc4cccc(C#N)c4)s3)nc12)C(C)(C)C [Example I-227, 2-[5-(3-Cyano-benzylcarbamoyl)-thiophen-2-yl]-5H-pyrrolo[2,3-b]pyrazine-7-carboxylic acid ((S)-1,2,2-trimethyl-propyl)-amide] was tested. Which IC50 did it give?
Its IC50 is 10.6 nM.

Which IC50 does the source give for CC(C)(C)CNC(=O)c1c[nH]c2ncc(C3CC3)nc12 [Example I-55, 2-Cyclopropyl-5H-pyrrolo[2,3-b]pyrazine-7-carboxylic acid (2,2-dimethyl-propyl)-amide] here?
The IC50 was 29.4 nM.

For C[C@H](NC(=O)c1c[nH]c2ncc(-c3ccc(C(=O)N[C@H](C)C4CC4)s3)nc12)C(C)(C)C [Example I-162, 2-[5-((R)-1-Cyclopropyl-ethylcarbamoyl)-thiophen-2-yl]-5H-pyrrolo[2,3-b]pyrazine-7-carboxylic acid ((S)-1,2,2-trimethyl-propyl)-amide], which IC50 is on record?
Its IC50 is 0.32 nM.

With C[C@H](NC(=O)c1c[nH]c2ncc(-c3ccc(C(=O)N4CCC(C#N)CC4)s3)nc12)C(C)(C)C [Example I-167, 2-[5-(4-Cyano-piperidine-1-carbonyl)-thiophen-2-yl]-5H-pyrrolo[2,3-b]pyrazine-7-carboxylic acid ((S)-1,2,2-trimethyl-propyl)-amide] as the molecule, how does the IC50 read?
The IC50 was 0.32 nM.

How did the IC50 turn out when N#CCNC(=O)c1c[nH]c2ncc(C3CC3)nc12 [Example I-28, 2-Cyclopropyl-5H-pyrrolo[2,3-b]pyrazine-7-carboxylic acid cyanomethyl-amide] was run?
The IC50 was 681 nM.

With C[C@H](NC(=O)c1c[nH]c2ncc(-c3ccc(C(=O)NC45CC6CC(CC(C6)C4)C5)s3)nc12)C(C)(C)C [Example I-194, 2-[5-(Adamantan-1-ylcarbamoyl)-thiophen-2-yl]-5H-pyrrolo[2,3-b]pyrazine-7-carboxylic acid ((S)-1,2,2-trimethyl-propyl)-amide] as the molecule, how does the IC50 read?
The IC50 was 1.34 nM.
